One data set concerns the target T1, MRP2 (Homo sapiens, UniProt Q92887).
T1 construct: host or cells: human hepatocyte-like cells (sac-like material) cultured from human primary hepatocytes
Nature of the data set: CDFDA excretion of present evaluation model, microscopy. The format is in vitro ADME. To be noted: CDFDA 2 μM, 5 µM, or 10 µM, 37°C, 30 min, 5% CO2; FIG. 5. Here is the method:
(§1) The culture of human liver cells after the subculturing in Experimental Example 1, the culture medium in Table 1, and 2% by volume of Matrigel with respect to the culture medium were added to a 6-well culture plate (manufactured by Sumitomo Bakelite Co., Ltd., MS-8006R), followed by the suspension culture at 37° ° C. for 3 days in the presence of 5% by volume of CO2 to form a sac-like material.
In Experimental Example 2, 2 μM, 5 µM, or 10 µM of carboxydichlorofluorescein diacetate (CDFDA), which is a substrate of MRP2, was added to the culture solution after the suspension culture. The incorporation of the CDFDA into the inner cavity of the present evaluation model was carried out at 37 °C for 30 min in the presence of 5% by volume of CO2. A culture solution containing the present evaluation model was placed in a low-adsorption 15 ml tube by pipetting, followed by centrifugation.

For data set [1], the target named is T2, P-glycoprotein (P-gp) (Homo sapiens, UniProt P08183). The data set can be described thus: Rho123 excretion of present evaluation model (sac-like material, suspension culture), fluorescence microscopy. The format is in vitro ADME. Set-up: In the obtained culture, an inner cavity due to the membrane of the human hepatocyte-like cell was formed; host or cells: human hepatocyte-like cells (organoid or sac-like material) cultured from human primary hepatocytes. The following applies: Rho123 10 μM, 37°C, 30 min, 5% CO2; sac-like material of human hepatocyte-like cells, 2% by volume Matrigel suspension culture; FIG. 2A/2B. Here is the method:
as §1
(§2) In Experimental Example 2, Rho123 (10 μM), which is a substrate for P-glycoprotein (P-gp), was added to the culture solution after the suspension culture. The incorporation of the Rho123 into the inner cavity of the present evaluation model was carried out at 37 °C for 30 min in the presence of 5% by volume of CO2. A culture solution containing the present evaluation model was placed in a low-adsorption 15 mL tube by pipetting, followed by centrifugation.

For data set [2], the target named is T2, P-glycoprotein (P-gp). Nature of the data set: Quantification of Rho123 incorporated into inner cavity of present evaluation model by LC/MS. It counts as in vitro ADME. Set-up: In the obtained culture, an inner cavity due to the membrane of the human hepatocyte-like cell was formed; host or cells: human hepatocyte-like cells (organoid or sac-like material) cultured from human primary hepatocytes. To be noted: Rho123 10 μM in culture solution, 37°C, 30 min. As to the method:
as §1, §2
The present evaluation model of Experimental Example 3, into which Rho123 had been incorporated, was mixed with methanol to kill the human hepatocyte-like cells. After mixing, centrifugation was carried out to extract the supernatant. The supernatant was subjected to analysis by a liquid chromatography-mass spectrometer (LC/MS) (manufactured by SHIMADZU CORPORATION, LCMSTM-8040), and from the concentration and amount of the Rho123 incorporated into the inner cavity and the concentration of the Rho123 in the culture solution, the proportion of the present evaluation model transported into the inner cavity was calculated.
• Column: Xbridge C18 3.5 μm, 2.1 mm×50 mm • Column temperature: 40° ° C. • Internal standard substance: Tolbutamine • Elution solvent: A solution (a 0.1% by mass formic acid solution), B solution (acetonitrile) • Gradient conditions: see Table 2 • Runtime: 7 minutes • Flow rate: 0.4 mL/min • Injection volume: 3 μL
• Mode: Positive (*the standard substance is in a negative mode)

Data set [3] addresses T2, P-glycoprotein (P-gp).
Description: Rho123 (10 μM) was added to the culture solution containing the culture embedded in Matrigel after the culturing prepared in Experimental Example 1, and the incorporation of the Rho123 into the inner cavity of the culture was carried out at 37° C. for 30 min in the presence of 5% by volume of CO2.
The polymerized Matrigel was degraded by pipetting and enzymatic treatment (Corning (registered trade name) Cell Recovery Solution) in order to measure the amount of the incorporated Rho123.

T2 sequence (P08183 whole entry): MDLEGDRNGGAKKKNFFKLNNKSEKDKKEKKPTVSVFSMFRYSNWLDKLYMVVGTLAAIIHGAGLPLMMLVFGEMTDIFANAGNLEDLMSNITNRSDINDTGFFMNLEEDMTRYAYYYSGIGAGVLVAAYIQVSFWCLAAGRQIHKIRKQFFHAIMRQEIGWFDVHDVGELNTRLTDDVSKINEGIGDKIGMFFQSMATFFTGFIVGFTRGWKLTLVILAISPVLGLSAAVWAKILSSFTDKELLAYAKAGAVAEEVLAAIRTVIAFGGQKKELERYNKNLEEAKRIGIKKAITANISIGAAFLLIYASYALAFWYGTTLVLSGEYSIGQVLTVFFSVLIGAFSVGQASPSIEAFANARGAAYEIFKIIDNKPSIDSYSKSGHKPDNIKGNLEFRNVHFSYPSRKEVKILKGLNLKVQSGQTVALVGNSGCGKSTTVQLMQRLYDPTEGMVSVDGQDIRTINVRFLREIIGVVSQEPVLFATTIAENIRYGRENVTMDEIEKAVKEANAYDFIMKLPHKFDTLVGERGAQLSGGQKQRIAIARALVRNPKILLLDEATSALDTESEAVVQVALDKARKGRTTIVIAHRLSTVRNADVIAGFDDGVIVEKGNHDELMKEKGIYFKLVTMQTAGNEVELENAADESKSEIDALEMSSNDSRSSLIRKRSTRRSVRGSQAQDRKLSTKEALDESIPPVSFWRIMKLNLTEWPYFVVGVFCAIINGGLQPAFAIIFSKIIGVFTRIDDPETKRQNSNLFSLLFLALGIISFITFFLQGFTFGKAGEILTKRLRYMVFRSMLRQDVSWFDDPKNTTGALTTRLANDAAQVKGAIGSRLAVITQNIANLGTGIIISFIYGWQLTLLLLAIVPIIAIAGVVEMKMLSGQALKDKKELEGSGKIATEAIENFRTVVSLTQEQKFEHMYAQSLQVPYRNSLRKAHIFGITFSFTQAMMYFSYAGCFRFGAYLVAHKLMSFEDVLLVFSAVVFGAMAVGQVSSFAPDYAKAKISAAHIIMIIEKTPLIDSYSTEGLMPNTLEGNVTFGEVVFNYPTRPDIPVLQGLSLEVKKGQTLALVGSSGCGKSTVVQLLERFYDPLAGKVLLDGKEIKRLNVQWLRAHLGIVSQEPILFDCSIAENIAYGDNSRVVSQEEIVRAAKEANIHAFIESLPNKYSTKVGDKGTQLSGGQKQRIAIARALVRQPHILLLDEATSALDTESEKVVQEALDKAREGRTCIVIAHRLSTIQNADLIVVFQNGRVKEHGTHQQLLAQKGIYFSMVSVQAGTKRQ
T1 sequence (Q92887 whole entry): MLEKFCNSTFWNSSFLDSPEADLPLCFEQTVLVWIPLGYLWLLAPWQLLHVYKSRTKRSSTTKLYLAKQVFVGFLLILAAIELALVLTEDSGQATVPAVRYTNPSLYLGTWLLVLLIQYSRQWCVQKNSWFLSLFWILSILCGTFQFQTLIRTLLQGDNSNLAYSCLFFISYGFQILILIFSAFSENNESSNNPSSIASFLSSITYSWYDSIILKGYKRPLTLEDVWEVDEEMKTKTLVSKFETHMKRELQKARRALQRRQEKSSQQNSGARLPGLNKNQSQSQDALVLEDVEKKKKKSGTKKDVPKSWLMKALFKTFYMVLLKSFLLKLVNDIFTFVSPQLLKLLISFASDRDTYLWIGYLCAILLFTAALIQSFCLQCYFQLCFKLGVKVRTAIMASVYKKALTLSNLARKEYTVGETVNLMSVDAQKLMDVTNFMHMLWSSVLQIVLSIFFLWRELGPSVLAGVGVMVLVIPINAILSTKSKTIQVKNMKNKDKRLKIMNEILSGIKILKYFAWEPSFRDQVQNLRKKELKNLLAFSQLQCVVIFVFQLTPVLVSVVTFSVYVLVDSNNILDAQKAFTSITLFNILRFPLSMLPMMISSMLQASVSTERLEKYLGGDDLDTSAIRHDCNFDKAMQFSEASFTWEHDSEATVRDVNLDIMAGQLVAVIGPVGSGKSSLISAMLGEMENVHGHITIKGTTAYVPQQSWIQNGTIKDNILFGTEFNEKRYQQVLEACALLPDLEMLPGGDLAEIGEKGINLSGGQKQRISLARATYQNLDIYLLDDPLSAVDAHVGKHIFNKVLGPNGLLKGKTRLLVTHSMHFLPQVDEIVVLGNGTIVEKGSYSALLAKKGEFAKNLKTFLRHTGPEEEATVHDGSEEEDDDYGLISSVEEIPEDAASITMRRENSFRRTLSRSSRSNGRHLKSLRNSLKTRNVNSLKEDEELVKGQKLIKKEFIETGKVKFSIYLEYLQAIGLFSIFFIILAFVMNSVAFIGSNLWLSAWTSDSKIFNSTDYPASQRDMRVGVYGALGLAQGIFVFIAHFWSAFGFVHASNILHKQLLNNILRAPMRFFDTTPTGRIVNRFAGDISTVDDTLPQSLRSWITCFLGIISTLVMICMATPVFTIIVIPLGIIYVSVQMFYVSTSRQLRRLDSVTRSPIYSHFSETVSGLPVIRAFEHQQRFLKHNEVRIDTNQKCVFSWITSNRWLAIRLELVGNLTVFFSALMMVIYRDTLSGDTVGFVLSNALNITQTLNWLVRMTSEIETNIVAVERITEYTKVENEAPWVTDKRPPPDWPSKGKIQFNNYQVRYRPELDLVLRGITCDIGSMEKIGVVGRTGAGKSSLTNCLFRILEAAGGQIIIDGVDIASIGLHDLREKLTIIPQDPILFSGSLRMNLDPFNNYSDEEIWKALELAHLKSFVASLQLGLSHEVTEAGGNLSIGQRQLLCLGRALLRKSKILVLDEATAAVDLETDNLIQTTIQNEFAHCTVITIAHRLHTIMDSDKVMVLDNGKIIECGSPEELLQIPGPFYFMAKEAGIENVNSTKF

“carboxydichlorofluorescein diacetate [CDFDA]”: on MRP2, the “Excretion into the inner cavity of the present evaluation model (microscopy)” value is reported as “excreted into the inner cavity of the present evaluation model”.

As for `COC(=O)c1ccccc1-c1c2ccc(=N)cc-2oc2cc(N)ccc12.Cl` [Rho123], the “Excretion into the inner cavity of the present evaluation model (microscopy)” value at P-glycoprotein (P-gp) [1] is recorded as “excreted into the inner cavity of the present evaluation model”. Also, at P-glycoprotein (P-gp) [2] (calculated from concentration and amount in inner cavity and concentration in culture solution), the “Proportion transported into present evaluation model” value is 1.23%. Moreover, on P-glycoprotein (P-gp) [2] (methanol extraction, LC/MS), the “Amount of Rho123 in present evaluation model” value turned out to be 0.123 nmol and the “Concentration of Rho123 in present evaluation model” value stood at 615.4 nM. Also, at P-glycoprotein (P-gp) [3], the “Incorporation into the inner cavity of the culture (microscopy)” value was “incorporation of Rho123 into the inner cavity of the culture was confirmed”.

The record behind these values is patent US20240183843A1, “METHOD FOR EVALUATING EXCRETION OF SUBSTANCE OF INTEREST BY HUMAN HEPATOCYTE-LIKE CELL” (JSR Corporation, priority 2020, published 2024).
